Experiment [1] concerns TNFα production in LPS-stimulated human monocytes. The experiment can be described thus: Cot Monocyte TNFα Cell Based Assay. The conditions noted are these: TNFα in LPS-stimulated human monocytes, read-out: EC50 TNF. In short, it runs like this:
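TR-FRET read-out of total secreted TNFα, normalized as % control (unstimulated = 0%, LPS-stimulated = 100%). Cells (5,000/well) were exposed to compound 1 h at 37 °C, then to 50 pg/ml LPS for a further 4 h.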

In experiment [2] the target is T1, human Cot catalytic domain (30-397 amino acids) (Homo sapiens, UniProt P41279).
T1 construct: Purified recombinant human Cot catalytic domain (30-397 amino acids) was purchased from Cama Biosciences; purchased Cama Biosciences (so in the source)
T1 sequence (P41279 30-397): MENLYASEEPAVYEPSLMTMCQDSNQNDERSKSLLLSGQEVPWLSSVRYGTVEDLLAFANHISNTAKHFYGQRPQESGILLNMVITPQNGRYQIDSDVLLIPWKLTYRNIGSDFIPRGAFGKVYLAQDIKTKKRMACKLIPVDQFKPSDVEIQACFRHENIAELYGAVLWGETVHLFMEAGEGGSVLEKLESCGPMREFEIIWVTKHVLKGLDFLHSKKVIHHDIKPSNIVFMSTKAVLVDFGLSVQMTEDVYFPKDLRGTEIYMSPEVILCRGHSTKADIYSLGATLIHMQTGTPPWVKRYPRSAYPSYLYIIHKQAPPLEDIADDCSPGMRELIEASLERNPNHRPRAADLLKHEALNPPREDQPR
The experiment can be described thus: High Throughput Cot Biochemical Assay (KinEASE TR-FRET). The conditions noted are these: Cot KinEASE TR-FRET (HTRF) biochemical assay, 400 μM ATP; read-out: IC50 HTRF. The essentials:
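TR-FRET readout: Eu-labeled phospho-specific antibody binds XL665-tagged STK3 peptide after phosphorylation by Cot (aa 30-397, 5 nM). Conditions: 400 μM ATP, 1 μM peptide, MOPS pH 7.0 buffer with MgOAc, DTT, BSA, NP-40, glycerol; 0.1% DMSO.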
Background: Time-resolved FRET reads energy transfer from a long-lived donor to a nearby acceptor.

By EC50 is commonly meant the concentration giving half of the maximal effect. Usually IC50 stands for the concentration that gives 50% inhibition.

Like-named read-outs stand apart in the source and are kept apart here.

Turning to `CC(C)(C)CNc1c(C#N)cnc2c(C#N)cc(N[C@@H](c3cccc(-c4ncco4)c3)c3cn(C4CC4)nn3)cc12` [Example 82, (S)-6-(((1-cyclopropyl-1H-1,2,3-triazol-4-yl)(3-(oxazol-2-yl)phenyl)methyl)amino)-4-(neopentylamino) quinoline-3,8-dicarbonitrile], in experiment [1] (Homo sapiens, Monocyte), the EC50 was 183 nM. The concentration for half-maximal inhibition (IC50) in experiment [2] was 1 nM.

For `CC(C)(C)CNc1c(C#N)cnc2c(Br)cc(N[C@@H](c3cccc(-c4ncco4)c3)c3cn(C4CC4)nn3)cc12` [Example 83, (S)-8-bromo-6-(((1-cyclopropyl-1H-1,2,3-triazol-4-yl) (3-(oxazol-2-yl)phenyl)methyl)amino)-4-(neopentylamino) quinoline-3-carbonitrile], in experiment [1] (Homo sapiens, Monocyte), the concentration giving a half-maximal response (EC50) was found to be 165 nM. The concentration for half-maximal inhibition (IC50) in experiment [2] came to 2 nM.

For the compound `[2H][C@](Nc1cc(C#N)c2ncc(C#N)c(NCC(C)(C)C)c2c1)(c1ccccc1)c1cn(C2CC2)nn1` [Example 84, (S)-6-(((1-cyclopropyl-1H-1,2,3-triazol-4-yl) (phenyl)methyl-d)amino)-4-(neopentylamino) quinoline-3,8-dicarbonitrile], the EC50 in experiment [1] (Homo sapiens, Monocyte) stood at 47 nM. Also, the concentration for half-maximal inhibition (IC50) in experiment [2] worked out at 2 nM.

For `[2H][C@@](Nc1cc(C(C)=O)c2ncc(C#N)c(Nc3cccc(Cl)c3)c2c1)(c1cn(C2CC2)nn1)c1ccccc1Cl` [Example 85, (S)-8-acetyl-6-(((2-chlorophenyl)(1-cyclopropyl-1H-1,2,3-triazol-4-yl)methyl-d)amino)-4-((3-chlorophenyl)amino)quinoline-3-carbonitrile], the EC50 in experiment [1] (Homo sapiens, Monocyte) stood at 862 nM. Further, the half-inhibitory concentration (IC50) in experiment [2] amounted to 42 nM.

As to `[2H][C@@](Nc1cc(Cl)c2ncc(C#N)c(NCC(C)(C)C)c2c1)(c1cn(C23CC(C2)C3)nn1)c1ccccc1Cl` [Example 86, (S)-6-(((1-(bicyclo[1.1.1]pentan-1-yl)-1H-1,2,3-triazol-4-yl)(2-chlorophenyl)methyl-d)amino)-8-chloro-4-(neopentylamino) quinoline-3-carbonitrile], the EC50 in experiment [1] (Homo sapiens, Monocyte) came to 244 nM. Also, the half-inhibitory concentration (IC50) in experiment [2] worked out at 22 nM.

On to `[2H]C(Nc1cc(Cl)c2ncc(C#N)c(NC(CCC#N)c3ccccc3)c2c1)(c1cn(C2CC2)nn1)c1ccccc1Cl` (centres unmarked) [Example 87, 8-chloro-6-(((2-chlorophenyl) (1-cyclopropyl-1H-1,2,3-triazol-4-yl)methyl-d)amino)-4-((3-cyano-1-phenylpropyl)amino) quinoline-3-carbonitrile], for which the EC50 in experiment [1] (Homo sapiens, Monocyte) was > 1000 nM. Further, in experiment [2], the IC50 was > 10000 nM.

Consider `[2H]C(Nc1cc(Cl)c2ncc(C#N)c(NC(CCC#N)c3ccccc3)c2c1)(c1cn(C2CC2)nn1)c1ccccc1Cl` (centres unmarked) [Example 88, 8-chloro-6-(((2-chlorophenyl) (1-cyclopropyl-1H-1,2,3-triazol-4-yl)methyl-d)amino)-4-((3-cyano-1-phenylpropyl)amino) quinoline-3-carbonitrile], for which, in experiment [1], the 50% effective concentration (EC50) was > 1000 nM. Also, the IC50 in experiment [2] came to 190 nM.

Turning to `[2H][C@](Nc1cc(Cl)c2ncc(C#N)c(N[C@H](CCC#N)c3ccccc3)c2c1)(c1cn(C2CC2)nn1)c1ccccc1Cl` [Example 89, 8-chloro-6-(((2-chlorophenyl) (1-cyclopropyl-1H-1,2,3-triazol-4-yl)methyl-d)amino)-4-(((R)-3-cyano-1-phenylpropyl)amino) quinoline-3-carbonitrile], the concentration giving a half-maximal response (EC50) in experiment [1] (Homo sapiens, Monocyte) came to 38 nM. Also, the half-inhibitory concentration (IC50) in experiment [2] stood at 2 nM.

For `[2H][C@](Nc1cc(Cl)c2ncc(C#N)c(NCC(C)(C)C)c2c1)(c1cn(CC2CCO2)nn1)c1ccccc1Cl` (some centres unmarked) [Example 90, 8-chloro-6-(((2-chlorophenyl) (1-(oxetan-2-ylmethyl)-1H-1,2,3-triazol-4-yl)methyl-d)amino)-4-(neopentylamino) quinoline-3-carbonitrile], in experiment [1] (Homo sapiens, Monocyte), the EC50 worked out at 287 nM. In addition, the IC50 in experiment [2] was determined as 26 nM.

In the case of `[2H][C@](Nc1cc(Cl)c2ncc(C#N)c(NCC(C)(C)C)c2c1)(c1cn(CC(F)(F)F)nn1)c1ccccc1Cl` [Example 93, 8-chloro-6-(((2-chlorophenyl) (1-(2,2,2-trifluoroethyl)-1H-1,2,3-triazol-4-yl)methyl-d)amino)-4-(neopentylamino) quinoline-3-carbonitrile], the half-maximal effective concentration (EC50) in experiment [1] (Homo sapiens, Monocyte) is 832 nM. For the same compound, the half-inhibitory concentration (IC50) in experiment [2] was determined as 59 nM.

As to `CC[C@@H](Nc1c(C#N)cnc2c(Cl)cc(N[C@@H](c3cccc(-c4ccccc4)c3)c3cn(C4CC4)nn3)cc12)c1ccccc1` [Example 94, 6-(((S)-[1,1'-biphenyl]-3-yl(1-cyclopropyl-1H-1,2,3-triazol-4-yl)methyl)amino)-8-chloro-4-(((R)-1-phenylpropyl)amino) quinoline-3-carbonitrile], the EC50 in experiment [1] (Homo sapiens, Monocyte) was > 1000 nM. Moreover, in experiment [2], the IC50 is 12 nM.

Take `CC(C)(C)CNc1c(C#N)cnc2c(Cl)cc(N[C@@H](c3cccc(-c4ccccc4)c3)c3cn(C4CC4)nn3)cc12` [Example 95, (S)-6-(([1,1'-biphenyl]-3-yl(1-cyclopropyl-1H-1,2,3-triazol-4-yl)methyl)amino)-8-chloro-4-(neopentylamino) quinoline-3-carbonitrile]: the EC50 in experiment [1] (Homo sapiens, Monocyte) is > 1000 nM. Besides, the IC50 in experiment [2] was 24 nM.

For the compound `CC[C@@H](Nc1c(C#N)cnc2c(Cl)cc(N[C@H](c3cn(C4CC4)nn3)c3ccccc3-c3ccccc3)cc12)c1ccccc1` [Example 96, 6-(((S)[1,1'-biphenyl]-2-yl(1-cyclopropyl-1H-1,2,3-triazol-4-yl)methyl)amino)-8-chloro-4-(((R)-1-phenylpropyl)amino) quinoline-3-carbonitrile], the 50% effective concentration (EC50) in experiment [1] (Homo sapiens, Monocyte) was > 1000 nM. Further, in experiment [2], the half-maximal inhibitory concentration (IC50) was determined as 778 nM.

As for `CC(C)(C)CNc1c(C#N)cnc2c(Cl)cc(N[C@H](c3cn(C4CC4)nn3)c3ccccc3-c3ccccc3)cc12` [Example 97, (S)-6-(([1,1'-biphenyl]-2-yl(1-cyclopropyl-1H-1,2,3-triazol-4-yl)methyl)amino)-8-chloro-4-(neopentylamino) quinoline-3-carbonitrile], the EC50 in experiment [1] (Homo sapiens, Monocyte) was > 1000 nM. In addition, the half-inhibitory concentration (IC50) in experiment [2] worked out at 985 nM.

Take `[2H][C@](Nc1cc(Cl)c2ncc(C#N)c(NCC(C)(C)C)c2c1)(c1cn(C2CC2(F)F)nn1)c1ccccc1Cl` (some centres unmarked) [Example 99, 8-chloro-6-(((2-chlorophenyl) (1-(2,2-difluorocyclopropyl)-1H-1,2,3-triazol-4-yl)methyl-d)amino)-4-(neopentylamino) quinoline-3-carbonitrile]: in experiment [1] (Homo sapiens, Monocyte), the concentration giving a half-maximal response (EC50) stood at 454 nM. For the same compound, the 50% inhibitory concentration (IC50) in experiment [2] came out at 19 nM.

As for `[2H][C@](Nc1cc(Cl)c2ncc(C#N)c(NCC(C)(C)C)c2c1)(c1cn(C2[C@H]3CN(C4COC4)C[C@@H]23)nn1)c1ccccc1Cl` (stereo partly drawn) [Example 100, 8-chloro-6-(((2-chlorophenyl) (1-((1R,5S,6r)-3-(oxetan-3-yl)-3-azabicyclo[3.1.0]hexan-6-yl)-1H-1,2,3-triazol-4-yl)methyl-d)amino)-4-(neopentylamino) quinoline-3-carbonitrile], the concentration for a half-maximal effect (EC50) in experiment [1] (Homo sapiens, Monocyte) stood at 337 nM. Moreover, the concentration for half-maximal inhibition (IC50) in experiment [2] amounted to 16 nM.

For the compound `[2H][C@@](Nc1cc(Cl)c2ncc(C#N)c(NCC(C)(C)C)c2c1)(c1cn(C2CC2)nn1)c1c(F)cccc1Cl` [Example 101, (S)-8-chloro-6-(((2-chloro-6-fluorophenyl) (1-cyclopropyl-1H-1,2,3-triazol-4-yl)methyl-d)amino)-4-(neopentylamino) quinoline-3-carbonitrile], the EC50 in experiment [1] (Homo sapiens, Monocyte) was > 1000 nM. Moreover, in experiment [2], the 50% inhibitory concentration (IC50) came out at 83 nM.

For the compound `[2H][C@](Nc1cc(I)c2ncc(C#N)c(NCC(C)(C)C)c2c1)(c1ccc(F)cc1)c1cn(C2CC2)nn1` [Example 102, (S)-6-(((1-cyclopropyl-1H-1,2,3-triazol-4-yl)(4-fluorophenyl)methyl-d)amino)-8-iodo-4-(neopentylamino) quinoline-3-carbonitrile], the 50% effective concentration (EC50) in experiment [1] (Homo sapiens, Monocyte) was > 1000 nM. The half-maximal inhibitory concentration (IC50) in experiment [2] amounted to 58 nM.

As to `[2H][C@@](Nc1cc(Cl)c2ncc(C#N)c(NCC(C)(C)C)c2c1)(c1cn(CC2(F)COC2)nn1)c1ccccc1Cl` [Example 103, 8-chloro-6-(((2-chlorophenyl) (1-((3-fluorooxetan-3-yl)methyl)-1H-1,2,3-triazol-4-yl)methyl-d)amino)-4-(neopentylamino) quinoline-3-carbonitrile], the EC50 in experiment [1] (Homo sapiens, Monocyte) stood at 522 nM. Also, the concentration for half-maximal inhibition (IC50) in experiment [2] was 50 nM.

As for `[2H][C@@](Nc1cc(Cl)c2ncc(C#N)c(NCC(C)(C)C)c2c1)(c1cn(CC2(O)COC2)nn1)c1ccccc1Cl` [Example 104, 8-chloro-6-(((2-chlorophenyl) (1-((3-hydroxyoxetan-3-yl)methyl)-1H-1,2,3-triazol-4-yl)methyl-d)amino)-4-(neopentylamino) quinoline-3-carbonitrile], in experiment [1] (Homo sapiens, Monocyte), the EC50 turned out to be 584 nM. Moreover, in experiment [2], the IC50 amounted to 23 nM.

Consider `[2H]C(Nc1cc(Cl)c2ncc(C#N)c(NCC(C)(C)C)c2c1)(c1cn(C2(C(F)(F)F)CC2)nn1)c1ccccc1Cl` (centres unmarked) [Example 106, 8-chloro-6-(((2-chlorophenyl) (1-(1-(trifluoromethyl)cyclopropyl)-1H-1,2,3-triazol-4-yl)methyl-d)amino)-4-(neopentylamino) quinoline-3-carbonitrile], for which, in experiment [1] (Homo sapiens, Monocyte), the concentration for a half-maximal effect (EC50) was determined as 826 nM. For the same compound, the 50% inhibitory concentration (IC50) in experiment [2] was determined as 58 nM.

Consider `[2H]C(Nc1cc(Cl)c2ncc(C#N)c(NCC(C)(C)C)c2c1)(c1cn(C2(C)CC2)nn1)c1ccccc1Cl` (centres unmarked) [Example 107, 8-chloro-6-(((2-chlorophenyl)(1-(1-methylcyclopropyl)-1H-1,2,3-triazol-4-yl)methyl-d)amino)-4-(neopentylamino) quinoline-3-carbonitrile], for which, in experiment [1] (Homo sapiens, Monocyte), the EC50 came to 272 nM. Moreover, in experiment [2], the concentration for half-maximal inhibition (IC50) is 14 nM.
